# Data as given in PubChem BioAssay (NCI).
#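 Five compound concentrations were applied to cells in 96-well plates for 48 hours; endpoints were derived by simple linear interpolation of the resulting dose-response curve. TGI denotes the concentration required for complete inhibition of growth.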
# Columns and labels:
# Test in all cases: growth of human tumour cells (NCI), 48 h
# 786-0 renal = tested on: 786-0 renal
# A498 renal = tested on: A498 renal
# A549 NSCLC = tested on: A549 NSCLC
# ACHN renal = tested on: ACHN renal
# BT-549 breast = tested on: BT-549 breast
# CAKI-1 renal = tested on: CAKI-1 renal
# CCRF-CEM leukemia = tested on: CCRF-CEM leukemia
# COLO 205 colon = tested on: COLO 205 colon
# DU-145 prostate = tested on: DU-145 prostate
# EKVX NSCLC = tested on: EKVX NSCLC
# HCC-2998 colon = tested on: HCC-2998 colon
# HCT-116 colon = tested on: HCT-116 colon
# HCT-15 colon = tested on: HCT-15 colon
# HOP-62 NSCLC = tested on: HOP-62 NSCLC
# HOP-92 NSCLC = tested on: HOP-92 NSCLC
# HS 578T breast = tested on: HS 578T breast
# HT29 colon = tested on: HT29 colon
# IGROV1 ovarian = tested on: IGROV1 ovarian
# K-562 leukemia = tested on: K-562 leukemia
# KM12 colon = tested on: KM12 colon
# LOX IMVI melanoma = tested on: LOX IMVI melanoma
# M14 melanoma = tested on: M14 melanoma
# MALME-3M melanoma = tested on: MALME-3M melanoma
# MCF7 breast = tested on: MCF7 breast
# MDA-MB-231 breast = tested on: MDA-MB-231 breast
# MDA-MB-435 = tested on: MDA-MB-435
# MDA-N = tested on: MDA-N
# NCI-H226 lung = tested on: NCI-H226 lung
# NCI-H23 lung = tested on: NCI-H23 lung
# NCI-H460 lung = tested on: NCI-H460 lung
# NCI/ADR-RES ovarian = tested on: NCI/ADR-RES ovarian
# OVCAR-3 ovarian = tested on: OVCAR-3 ovarian
# OVCAR-4 ovarian = tested on: OVCAR-4 ovarian
# OVCAR-5 ovarian = tested on: OVCAR-5 ovarian
# OVCAR-8 ovarian = tested on: OVCAR-8 ovarian
# PC-3 prostate = tested on: PC-3 prostate
# RPMI-8226 leukemia = tested on: RPMI-8226 leukemia
# RXF 393 renal = tested on: RXF 393 renal
# SF-268 CNS = tested on: SF-268 CNS
# SF-295 CNS = tested on: SF-295 CNS
# SK-MEL-2 melanoma = tested on: SK-MEL-2 melanoma
# SK-MEL-28 melanoma = tested on: SK-MEL-28 melanoma
# SK-MEL-5 melanoma = tested on: SK-MEL-5 melanoma
# SK-OV-3 ovarian = tested on: SK-OV-3 ovarian
# SN12C renal = tested on: SN12C renal
# SNB-19 CNS = tested on: SNB-19 CNS
# SNB-75 CNS = tested on: SNB-75 CNS
# SR leukemia = tested on: SR leukemia
# SW-620 colon = tested on: SW-620 colon
# T-47D breast = tested on: T-47D breast
# TK-10 renal = tested on: TK-10 renal
# U251 CNS = tested on: U251 CNS
# UACC-257 melanoma = tested on: UACC-257 melanoma
# UACC-62 melanoma = tested on: UACC-62 melanoma
# UO-31 renal = tested on: UO-31 renal
# MOLT-4 leukemia = tested on: MOLT-4 leukemia
# NCI-H522 lung = tested on: NCI-H522 lung
# SF-539 CNS = tested on: SF-539 CNS
structure (smiles),measurement,setting,value
S=C(NCCc1ccccn1)c1nc[nH]c1C(=S)NCCc1ccccn1,TGI,786-0 renal,> 100 µM
same,TGI,A498 renal,> 100 µM
same,TGI,A549 NSCLC,> 100 µM
same,TGI,ACHN renal,> 100 µM
same,TGI,BT-549 breast,> 100 µM
same,TGI,CAKI-1 renal,> 100 µM
same,TGI,CCRF-CEM leukemia,81.1 µM
same,TGI,COLO 205 colon,> 100 µM
same,TGI,DU-145 prostate,> 100 µM
same,TGI,EKVX NSCLC,> 100 µM
same,TGI,HCC-2998 colon,> 100 µM
same,TGI,HCT-116 colon,> 100 µM
same,TGI,HCT-15 colon,> 100 µM
same,TGI,HOP-62 NSCLC,> 100 µM
same,TGI,HOP-92 NSCLC,> 100 µM
same,TGI,HS 578T breast,68.1 µM
same,TGI,HT29 colon,> 100 µM
same,TGI,IGROV1 ovarian,> 100 µM
same,TGI,K-562 leukemia,> 100 µM
same,TGI,KM12 colon,> 100 µM
same,TGI,LOX IMVI melanoma,45.5 µM
same,TGI,M14 melanoma,> 100 µM
same,TGI,MALME-3M melanoma,> 100 µM
same,TGI,MCF7 breast,> 100 µM
same,TGI,MDA-MB-231 breast,> 100 µM
same,TGI,MDA-MB-435,> 100 µM
same,TGI,MDA-N,> 100 µM
same,TGI,NCI-H226 lung,> 100 µM
same,TGI,NCI-H23 lung,> 100 µM
same,TGI,NCI-H460 lung,64.6 µM
same,TGI,NCI/ADR-RES ovarian,65.1 µM
same,TGI,OVCAR-3 ovarian,> 100 µM
same,TGI,OVCAR-4 ovarian,> 100 µM
same,TGI,OVCAR-5 ovarian,> 100 µM
same,TGI,OVCAR-8 ovarian,82.4 µM
same,TGI,PC-3 prostate,> 100 µM
same,TGI,RPMI-8226 leukemia,> 100 µM
same,TGI,RXF 393 renal,87.9 µM
same,TGI,SF-268 CNS,> 100 µM
same,TGI,SF-295 CNS,> 100 µM
same,TGI,SK-MEL-2 melanoma,> 100 µM
same,TGI,SK-MEL-28 melanoma,> 100 µM
same,TGI,SK-MEL-5 melanoma,> 100 µM
same,TGI,SK-OV-3 ovarian,> 100 µM
same,TGI,SN12C renal,> 100 µM
same,TGI,SNB-19 CNS,> 100 µM
same,TGI,SNB-75 CNS,83.3 µM
same,TGI,SR leukemia,> 100 µM
same,TGI,SW-620 colon,> 100 µM
same,TGI,T-47D breast,60.6 µM
same,TGI,TK-10 renal,> 100 µM
same,TGI,U251 CNS,> 100 µM
same,TGI,UACC-257 melanoma,> 100 µM
same,TGI,UACC-62 melanoma,56.2 µM
same,TGI,UO-31 renal,> 100 µM
COC(=O)CCC1(C)C2CCC1/C(=N/O)C2 (stereo not drawn),TGI,786-0 renal,> 100 µM
same,TGI,A498 renal,> 100 µM
same,TGI,A549 NSCLC,> 100 µM
same,TGI,ACHN renal,> 100 µM
same,TGI,BT-549 breast,> 100 µM
same,TGI,CAKI-1 renal,> 100 µM
same,TGI,CCRF-CEM leukemia,> 100 µM
same,TGI,COLO 205 colon,> 100 µM
same,TGI,DU-145 prostate,> 100 µM
same,TGI,EKVX NSCLC,> 100 µM
same,TGI,HCC-2998 colon,> 100 µM
same,TGI,HCT-116 colon,> 100 µM
same,TGI,HCT-15 colon,> 100 µM
same,TGI,HOP-62 NSCLC,> 100 µM
same,TGI,HS 578T breast,> 100 µM
same,TGI,HT29 colon,> 100 µM
same,TGI,IGROV1 ovarian,> 100 µM
same,TGI,K-562 leukemia,> 100 µM
same,TGI,KM12 colon,> 100 µM
same,TGI,M14 melanoma,> 100 µM
same,TGI,MALME-3M melanoma,> 100 µM
same,TGI,MCF7 breast,> 100 µM
same,TGI,MDA-MB-231 breast,> 100 µM
same,TGI,MDA-MB-435,> 100 µM
same,TGI,MDA-N,> 100 µM
same,TGI,MOLT-4 leukemia,> 100 µM
same,TGI,NCI-H226 lung,> 100 µM
same,TGI,NCI-H23 lung,> 100 µM
same,TGI,NCI-H522 lung,> 100 µM
same,TGI,NCI/ADR-RES ovarian,> 100 µM
same,TGI,OVCAR-3 ovarian,> 100 µM
same,TGI,OVCAR-4 ovarian,> 100 µM
same,TGI,OVCAR-5 ovarian,> 100 µM
same,TGI,OVCAR-8 ovarian,> 100 µM
same,TGI,PC-3 prostate,> 100 µM
same,TGI,RPMI-8226 leukemia,> 100 µM
same,TGI,RXF 393 renal,> 100 µM
same,TGI,SF-268 CNS,> 100 µM
same,TGI,SF-295 CNS,> 100 µM
same,TGI,SK-MEL-2 melanoma,> 100 µM
same,TGI,SK-MEL-28 melanoma,> 100 µM
same,TGI,SK-MEL-5 melanoma,> 100 µM
same,TGI,SK-OV-3 ovarian,> 100 µM
same,TGI,SN12C renal,> 100 µM
same,TGI,SNB-19 CNS,> 100 µM
same,TGI,SNB-75 CNS,> 100 µM
same,TGI,SR leukemia,> 100 µM
same,TGI,SW-620 colon,> 100 µM
same,TGI,T-47D breast,> 100 µM
same,TGI,TK-10 renal,> 100 µM
same,TGI,U251 CNS,> 100 µM
same,TGI,UACC-257 melanoma,> 100 µM
same,TGI,UACC-62 melanoma,> 100 µM
same,TGI,UO-31 renal,> 100 µM
CCc1nc(N)c2nc(-c3ccc(C#N)cc3)oc2n1,TGI,786-0 renal,> 100 µM
same,TGI,A498 renal,> 100 µM
same,TGI,A549 NSCLC,> 100 µM
same,TGI,ACHN renal,> 100 µM
same,TGI,BT-549 breast,> 100 µM
same,TGI,CAKI-1 renal,> 100 µM
same,TGI,CCRF-CEM leukemia,> 100 µM
same,TGI,COLO 205 colon,> 100 µM
same,TGI,DU-145 prostate,> 100 µM
same,TGI,EKVX NSCLC,> 100 µM
same,TGI,HCC-2998 colon,> 100 µM
same,TGI,HCT-116 colon,> 100 µM
same,TGI,HCT-15 colon,> 100 µM
same,TGI,HOP-62 NSCLC,> 100 µM
same,TGI,HOP-92 NSCLC,> 100 µM
same,TGI,HS 578T breast,> 100 µM
same,TGI,HT29 colon,> 100 µM
same,TGI,IGROV1 ovarian,> 100 µM
same,TGI,K-562 leukemia,> 100 µM
same,TGI,KM12 colon,> 100 µM
same,TGI,LOX IMVI melanoma,> 100 µM
same,TGI,M14 melanoma,> 100 µM
same,TGI,MCF7 breast,> 100 µM
same,TGI,MDA-MB-231 breast,> 100 µM
same,TGI,MDA-MB-435,> 100 µM
same,TGI,MDA-N,> 100 µM
same,TGI,MOLT-4 leukemia,> 100 µM
same,TGI,NCI-H226 lung,> 100 µM
same,TGI,NCI-H23 lung,> 100 µM
same,TGI,NCI-H460 lung,> 100 µM
same,TGI,NCI-H522 lung,> 100 µM
same,TGI,NCI/ADR-RES ovarian,> 100 µM
same,TGI,OVCAR-3 ovarian,> 100 µM
same,TGI,OVCAR-5 ovarian,> 100 µM
same,TGI,OVCAR-8 ovarian,> 100 µM
same,TGI,PC-3 prostate,> 100 µM
same,TGI,RPMI-8226 leukemia,> 100 µM
same,TGI,RXF 393 renal,> 100 µM
same,TGI,SF-268 CNS,> 100 µM
same,TGI,SF-295 CNS,> 100 µM
same,TGI,SF-539 CNS,> 100 µM
same,TGI,SK-MEL-2 melanoma,> 100 µM
same,TGI,SK-MEL-28 melanoma,> 100 µM
same,TGI,SK-MEL-5 melanoma,> 100 µM
same,TGI,SN12C renal,> 100 µM
same,TGI,SNB-19 CNS,> 100 µM
same,TGI,SNB-75 CNS,> 100 µM
same,TGI,SR leukemia,> 100 µM
same,TGI,SW-620 colon,> 100 µM
same,TGI,T-47D breast,> 100 µM
same,TGI,TK-10 renal,> 100 µM
same,TGI,UACC-257 melanoma,> 100 µM
same,TGI,UACC-62 melanoma,> 100 µM
same,TGI,UO-31 renal,> 100 µM
